Measured values from US9708336B2, “Metallo-beta-lactamase inhibitors” (priority 2014, dated 2017).
pIC50: −log10 of the molar value. Read-outs that look alike come from different tables or passages of the source.

Legend:
VIM-1 = VIM-1 (Pseudomonas aeruginosa (strain ATCC 15692 / DSM 22644 / CIP 104116 / JCM 14847 / LMG 12228 / 1C / PRS 101 / PAO1), UniProt A0A0F7KYQ8); experiment: Enzyme activity: determination of IC50, fluorescence assay with CCF2-FA substrate (VIM-1); format: biochemical; conditions: CCF2-FA substrate
NDM-1 = NDM-1 (Klebsiella pneumoniae, UniProt C7C422); experiment: biochemical; format: biochemical; conditions: NDM-1 enzyme, CCF2-FA substrate; read-out: NDM-1 IC50
[1] = test system: Serratia marcescens expressing IMP-1 (CL5741); experiment: Antibiotic potentiation activity: synergistic concentration (MITC95) with imipenem, OD600 growth; format: cell-based; conditions: Serratia marcescens CL5741 (IMP-1), 95% growth inhibition
Method in brief: (§1)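 CLB30005 was precultured on Mueller Hinton agar with 8 ug/ml imipenem, the other strains on trypticase soy agar with 5% sheep blood, overnight at 35 °C. Saline suspensions diluted 1:100 in 1.1× CAMHB received compound and 4 μg/ml imipenem, then 22–24 h at 35 °C before absorbance reading.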

[2] = test system: Escherichia coli expressing NDM-1 (CLB30016); experiment: as above; format: cell-based; conditions: (CLB30016, NDM-1), 95% growth inhibition
Method in brief: as §1

[3] = test system: Klebsiella pneumoniae expressing VIM-1 (IHMA599644); experiment: as above; format: cell-based; conditions: Klebsiella pneumoniae IHMA599644 (VIM-1), 95% growth inhibition
Method in brief: as §1

IMP-1 = IMP-1 (Serratia marcescens, UniProt P52699); experiment: biochemical; format: biochemical; conditions: IMP-1 enzyme, CCF2-FA substrate; read-out: IMP-1 IC50
[4] = VIM-1 enzyme, read-out: VIM-1 IC50

IMP-1, sequence (P52699 whole entry, looked up): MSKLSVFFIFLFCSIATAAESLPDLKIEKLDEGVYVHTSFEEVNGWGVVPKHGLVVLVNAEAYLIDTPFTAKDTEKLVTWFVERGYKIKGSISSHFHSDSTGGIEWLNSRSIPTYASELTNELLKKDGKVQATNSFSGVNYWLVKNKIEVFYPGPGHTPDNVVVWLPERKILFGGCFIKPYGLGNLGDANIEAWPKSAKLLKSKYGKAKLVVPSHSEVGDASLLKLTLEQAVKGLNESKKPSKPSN
NDM-1, sequence (C7C422 whole entry, looked up, species assumed): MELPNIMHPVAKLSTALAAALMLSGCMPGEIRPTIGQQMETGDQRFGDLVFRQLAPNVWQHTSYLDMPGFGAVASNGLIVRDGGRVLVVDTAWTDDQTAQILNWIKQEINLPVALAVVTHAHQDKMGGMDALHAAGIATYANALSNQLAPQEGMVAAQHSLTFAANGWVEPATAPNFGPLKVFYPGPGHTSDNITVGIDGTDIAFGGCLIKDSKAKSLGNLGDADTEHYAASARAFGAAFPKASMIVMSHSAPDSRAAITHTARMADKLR

Row | Compound | pIC50 (VIM-1; [4]) | pIC50 (NDM-1) | Serratia marcescens MITC95 [1] | Escherichia coli MITC95 [2] | Klebsiella pneumoniae MITC95 [3] | pIC50 (IMP-1) | pIC50 (VIM-1; VIM-1 IC50, VIM-1 enzyme)
1 | N=C(N)NCc1ccc(-c2ccc(CC3CCNCC3)c(S(N)(=O)=O)c2-c2nn[nH]n2)cc1 [Example 594, 4′-(guanidinomethyl)-4-(piperidin-4-ylmethyl)-2-(2H-tetrazol-5-yl)biphenyl-3-sulfonamide] | 8.27 | 7.87 | 1.563 µM | 0.7813 µM | 1.563 µM | 7.29 | –
2 | NS(=O)(=O)c1c(C[C@H]2CC[C@H](N)CC2)ccc(-c2ccc(C3CNC3)cc2)c1-c1nn[nH]n1 [Example 595, 4-(((1r,4r)-4-aminocyclohexyl)methyl)-4′-(azetidin-3-yl)-2-(2H-tetrazol-5-yl)-[1,1′-biphenyl]-3-sulfonamide] | – | 8.36 | 3.125 µM | 0.7813 µM | 1.563 µM | 7.37 | 8.89
3 | NS(=O)(=O)c1c(C[C@H]2CC[C@@H](N)CC2)ccc(-c2ccc(C3CNC3)cc2)c1-c1nnn[nH]1 [Example 596, 4-(((1s,4s)-4-aminocyclohexyl)methyl)-4′-(azetidin-3-yl)-2-(1H-tetrazol-5-yl)-[1,1′-biphenyl]-3-sulfonamide] | – | 8.36 | 1.563 µM | 0.7813 µM | 1.563 µM | 7.98 | 8.13
4 | NS(=O)(=O)c1c(CC2CCNCC2)ccc(-c2ccc(C3CNC3)cc2)c1-c1nnn[nH]1 [Example 597, 3-[4-(azetidin-3-yl)phenyl]-6-(4-piperidylmethyl)-2-(1H-tetrazol-5-yl)benzenesulfonamide] | 8.91 | 8.05 | 3.125 µM | 1.563 µM | 1.563 µM | 7.34 | –
5 | NS(=O)(=O)c1c(CC[C@H]2CC[C@H](N)CC2)ccc(-c2ccc(C3CNC3)cc2)c1-c1nnn[nH]1 [Example 599, 4-(2-((1r,4s)-4-aminocyclohexyl)ethyl)-4′-(azetidin-3-yl)-2-(1H-tetrazol-5-yl)-[1,1′-biphenyl]-3-sulfonamide] | – | 8.67 | 3.125 µM | 1.563 µM | 3.125 µM | 8.19 | 8.27
6 | NS(=O)(=O)c1c(CC[C@H]2CC[C@@H](N)CC2)ccc(-c2ccc(C3CNC3)cc2)c1-c1nnn[nH]1 [Example 600, 4-(2-((1s,4r)-4-aminocyclohexyl)ethyl)-4′-(azetidin-3-yl)-2-(1H-tetrazol-5-yl)-[1,1′-biphenyl]-3-sulfonamide] | – | 8.59 | 6.25 µM | 1.563 µM | 3.125 µM | 7.36 | 9.06
7 | NC[C@H]1CC[C@H](Cc2ccc(-c3ccc(C4CNC4)cc3)c(-c3nnn[nH]3)c2S(N)(=O)=O)CC1 [Example 601, 4-(((1r,4r)-4-(aminomethyl)cyclohexyl)methyl)-4′-(azetidin-3-yl)-2-(1H-tetrazol-5-yl)-[1,1′-biphenyl]-3-sulfonamide] | – | 8.78 | 3.125 µM | 1.563 µM | 1.563 µM | 7.88 | 9.23
8 | NC[C@H]1CC[C@@H](Cc2ccc(-c3ccc(C4CNC4)cc3)c(-c3nnn[nH]3)c2S(N)(=O)=O)CC1 [Example 602, 4-(((1s,4s)-4-(aminomethyl)cyclohexyl)methyl)-4′-(azetidin-3-yl)-2-(1H-tetrazol-5-yl)-[1,1′-biphenyl]-3-sulfonamide] | – | 8.40 | 3.125 µM | 1.563 µM | 1.563 µM | 7.68 | 8.61
9 | N=C(N)N1CC(c2ccc(-c3ccc(CC4CCNCC4)c(S(N)(=O)=O)c3-c3nn[nH]n3)cc2)C1 [Example 603, 3-[4-[4-(4-piperidylmethyl)-3-sulfamoyl-2-(2H-tetrazol-5-yl)phenyl]phenyl]azetidine-1-carboxamidine] | 8.33 | 7.67 | 1.563 µM | 3.125 µM | 1.563 µM | 7.50 | –
10 | N=C(N)N1CCC(Cc2ccc(-c3ccc(C4CNC4)cc3)c(-c3nn[nH]n3)c2S(N)(=O)=O)CC1 [Example 604, 4-[[4-[4-(azetidin-3-yl)phenyl]-2-sulfamoyl-3-(2H-tetrazol-5-yl)phenyl]methyl]piperidine-1-carboxamidine] | 9.05 | 8.48 | 6.25 µM | 1.563 µM | 1.563 µM | 7.38 | –
11 | NCCN1CCC(Cc2ccc(-c3ccc(C4CNC4)cc3)c(-c3nn[nH]n3)c2S(N)(=O)=O)CC1 [Example 606, 6-[[1-(2-aminoethyl)-4-piperidyl]methyl]-3-[4-(azetidin-3-yl)phenyl]-2-(2H-tetrazol-5-yl)benzenesulfonamide] | – | 7.75 | 3.125 µM | 0.7813 µM | 1.563 µM | 7.29 | 8.95
12 | NS(=O)(=O)c1c(CC2CCN(CCO)CC2)ccc(-c2ccc(C3CNC3)cc2)c1-c1nn[nH]n1 [Example 607, 3-[4-(azetidin-3-yl)phenyl]-6-[[1-(2-hydroxyethyl)-4-piperidyl]methyl]-2-(2H-tetrazol-5-yl)benzenesulfonamide] | 8.68 | 7.95 | 3.125 µM | 1.563 µM | 1.563 µM | 7.37 | –
13 | NS(=O)(=O)c1c(CC2CCNCC2)ccc(-c2ccc(C3CN(CCO)C3)cc2)c1-c1nn[nH]n1 [Example 608, 3-[4-[1-(2-hydroxyethyl)azetidin-3-yl]phenyl]-6-(4-piperidylmethyl)-2-(2H-tetrazol-5-yl)benzenesulfonamide] | 7.35 | 7.52 | 6.25 µM | 6.25 µM | 6.25 µM | 6.90 | –
14 | NC(=O)CN1CCC(Cc2ccc(-c3ccc(C4CNC4)cc3)c(-c3nn[nH]n3)c2S(N)(=O)=O)CC1 [Example 609, 2-[4-[[4-[4-(azetidin-3-yl)phenyl]-2-sulfamoyl-3-(2H-tetrazol-5-yl)phenyl]methyl]-1-piperidyl]acetamide] | 8.79 | 7.67 | 12.5 µM | 6.25 µM | 3.125 µM | 7.08 | –
15 | Nc1nc2ccc(-c3ccc(CC4CCNCC4)c(S(N)(=O)=O)c3-c3nn[nH]n3)cc2[nH]1 [Example 610, 3-(2-amino-3H-benzo[d]imidazol-5-yl)-6-(piperidin-4-ylmethyl)-2-(2H-tetrazol-5-yl)benzenesulfonamide] | 8.19 | 8.53 | 3.125 µM | 0.3906 µM | 1.563 µM | 6.94 | –
16 | Nc1nc2cc(-c3ccc(CC4CNC4)c(S(N)(=O)=O)c3-c3nn[nH]n3)ccc2[nH]1 [Example 611, 3-(2-amino-3H-benzo[d]imidazol-5-yl)-6-(azetidin-3-ylmethyl)-2-(2H-tetrazol-5-yl)benzenesulfonamide] | 7.70 | 7.75 | 12.5 µM | 0.3906 µM | 1.563 µM | 6.46 | –
17 | Nc1nc2cccc(-c3ccc(CC4CCNCC4)c(S(N)(=O)=O)c3-c3nn[nH]n3)c2[nH]1 [Example 612, 3-(2-amino-3H-benzo[d]imidazol-4-yl)-6-(piperidin-4-ylmethyl)-2-(2H-tetrazol-5-yl)benzenesulfonamide] | 8.14 | 8.79 | 2.563 µM | 0.5 µM | 1.281 µM | 7.18 | –
18 | NCCCN1CCC(c2ccc(-c3cccc(S(N)(=O)=O)c3-c3nnn[nH]3)cc2)CC1 [Example 613, 3-[4-[1-(3-aminopropyl)-4-piperidyl]phenyl]-2-(1H-tetrazol-5-yl)benzenesulfonamide] | 6.60 | 7.85 | 0.543 µM | 0.25 µM | 18.75 µM | 7.44 | –
19 | CC(C)[C@@H](N)CN1CCC(c2ccc(-c3cccc(S(N)(=O)=O)c3-c3nnn[nH]3)cc2)CC1 [Example 614, 3-[4-[1-[(2R)-2-amino-3-methyl-butyl]-4-piperidyl]phenyl]-2-(1H-tetrazol-5-yl)benzenesulfonamide] | 6.30 | 8.23 | 1.563 µM | 1.172 µM | >200 µM | 7.94 | –
